Source: US10202378B2, “Therapeutic compounds and uses thereof” (GENENTECH, INC., priority 2015, dated 2019)

Key:
[1] = molecular target: TAF1-BD2 (Homo sapiens, UniProt P21675); assay: TAF1-BD2 TR-FRET Binding Assay; conditions: read-out: TAF1-BD2 HTRF IC50
[2] = molecular target: TAF1-BD1 (Homo sapiens, UniProt P21675); assay: TAF1-BD1 TR-FRET Binding Assay; conditions: read-out: TAF1-BD1 HTRF IC50

Row | Structure (SMILES) | IC50 [1] [nM] | IC50 [2] [nM]
1 | Cc1[nH]c2c(=O)n(C)cc(C#CC(C)(O)C3CC3)c2c1-c1nnc(C(C)(C)C)o1 (stereo not drawn) [Example 187, 3-(5-tert-butyl-1,3,4-oxadiazol-2-yl)-4-(3-cyclopropyl-3-hydroxy-but-1-ynyl)-2,6-dimethyl-1H-pyrrolo[2,3-c]pyridin-7-one] | 58 | 216
2 | Cc1cc([C@](C)(O)C#Cc2cn(C)c(=O)c3[nH]c(C)c(-c4nnc(C5CC5)o4)c23)no1 [Example 190, 3-(5-cyclopropyl-1,3,4-oxadiazol-2-yl)-4-[(3R)-3-hydroxy-3-(5-methylisoxazol-3-yl)but-1-ynyl]-2,6-dimethyl-1H-pyrrolo[2,3-c]pyridin-7-one] | 49.9 | 239
3 | Cc1[nH]c2c(=O)n(C)cc(C#CC(C)(O)C3CC3)c2c1-c1nnc(C(C)C)o1 (stereo not drawn) [Example 191, 4-(3-cyclopropyl-3-hydroxy-but-1-ynyl)-3-(5-isopropyl-1,3,4-oxadiazol-2-yl)-2,6-dimethyl-1H-pyrrolo[2,3-c]pyridin-7-one] | 36.4 | 270
4 | Cc1nnc(-c2c(C)[nH]c3c(=O)n(C)cc(C#CC(C)(O)C4CC4)c23)o1 (stereo not drawn) [Example 192, 4-(3-cyclopropyl-3-hydroxy-but-1-ynyl)-2,6-dimethyl-3-(5-methyl-1,3,4-oxadiazol-2-yl)-1H-pyrrolo[2,3-c]pyridin-7-one] | 61.6 | 335
5 | Cc1cc([C@](C)(O)C#Cc2cn(C)c(=O)c3[nH]c(C)c(-c4nnc(C)o4)c23)no1 [Example 193, 4-[(3R)-3-hydroxy-3-(5-methylisoxazol-3-yl)but-1-ynyl]-2,6-dimethyl-3-(5-methyl-1,3,4-oxadiazol-2-yl)-1H-pyrrolo[2,3-c]pyridin-7-one] | 153 | 517
6 | Cc1cc([C@](C)(O)C#Cc2cn(C)c(=O)c3[nH]c(C)c(-c4nnc(C(C)C)o4)c23)no1 [Example 194, 4-[(3R)-3-hydroxy-3-(5-methylisoxazol-3-yl)but-1-ynyl]-3-(5-isopropyl-1,3,4-oxadiazol-2-yl)-2,6-dimethyl-1H-pyrrolo[2,3-c]pyridin-7-one] | 69.1 | 244
7 | Cc1[nH]c2c(=O)n(C)cc(C#CC(C)(C)O)c2c1-c1nnc(C(C)C)o1 [Example 195, 4-(3-hydroxy-3-methyl-but-1-ynyl)-3-(5-isopropyl-1,3,4-oxadiazol-2-yl)-2,6-dimethyl-1H-pyrrolo[2,3-c]pyridin-7-one] | 29.4 | 360
8 | Cc1cc2c(C#CC(C)(C)O)cn(C)c(=O)c2[nH]1 [Example 198, 4-(3-hydroxy-3-methyl-but-1-ynyl)-2,6-dimethyl-1H-pyrrolo[2,3-c]pyridin-7-one] | 536 | 1740
9 | CC(=O)c1c(C)n(C)c2c(=O)[nH]cc(C#CC(C)(C)O)c12 [Example 199b, 3-acetyl-4-(3-hydroxy-3-methyl-but-1-ynyl)-1,2-dimethyl-6H-pyrrolo[2,3-c]pyridin-7-one] | 20000 | 20000
10 | Cc1[nH]c2c(=O)n(C)cc(C#CC(C)(C)O)c2c1C(=O)O [Example 200, 4-(3-hydroxy-3-methyl-but-1-ynyl)-2,6-dimethyl-7-oxo-1H-pyrrolo[2,3-c]pyridine-3-carboxylic acid] | 13700 | 20000
11 | Cc1[nH]c2c(=O)n(C)cc(C#CC(C)(C)O)c2c1C1=NC(C(C)C)CO1 (stereo not drawn) [Example 202, 4-(3-hydroxy-3-methyl-but-1-ynyl)-3-(4-isopropyl-4,5-dihydrooxazol-2-yl)-2,6-dimethyl-1H-pyrrolo[2,3-c]pyridin-7-one] | 176 | 1230
12 | Cc1[nH]c2c(=O)n(C)cc(C#CC(C)(O)C3CC3)c2c1C1=NC(C(C)C)CO1 (stereo not drawn) [Example 203, 4-(3-cyclopropyl-3-hydroxy-but-1-ynyl)-3-(4-isopropyl-4,5-dihydrooxazol-2-yl)-2,6-dimethyl-1H-pyrrolo[2,3-c]pyridin-7-one] | 307 | 1120
13 | Cc1[nH]c2c(=O)n(C)cc(C#CC(C)(O)C3CC3)c2c1C1=NCC(C)(C)O1 (stereo not drawn) [Example 204, 4-(3-cyclopropyl-3-hydroxy-but-1-ynyl)-3-(5,5-dimethyl-4H-oxazol-2-yl)-2,6-dimethyl-1H-pyrrolo[2,3-c]pyridin-7-one] | 147 | 1030
14 | CCOC(=O)c1c(C2CC2)[nH]c2c(=O)n(C)cc(C#CC(C)(C)O)c12 [Example 207, ethyl 2-cyclopropyl-4-(3-hydroxy-3-methyl-but-1-ynyl)-6-methyl-7-oxo-1H-pyrrolo[2,3-c]pyridine-3-carboxylate] | 353 | 957

The next lines start with the values.

Row | IC50 [1] [nM] | IC50 [2] [nM] | Structure (SMILES)
15 | 50.2 | 598 | Cc1[nH]c2c(=O)n(C)cc(C#CC(O)(c3ccccc3)C(F)(F)F)c2c1-c1nnco1 (stereo not drawn) [Example 183, 2,6-dimethyl-3-(1,3,4-oxadiazol-2-yl)-4-(4,4,4-trifluoro-3-hydroxy-3-phenyl-but-1-ynyl)-1H-pyrrolo[2,3-c]pyridin-7-one]
16 | 62.7 | 327 | Cc1nnc(-c2c(C)[nH]c3c(=O)n(C)cc(C#CC(O)(c4ccccc4)C(F)(F)F)c23)o1 (stereo not drawn) [Example 184, 2,6-dimethyl-3-(5-methyl-1,3,4-oxadiazol-2-yl)-4-(4,4,4-trifluoro-3-hydroxy-3-phenyl-but-1-ynyl)-1H-pyrrolo[2,3-c]pyridin-7-one]
17 | 86.2 | 385 | Cc1[nH]c2c(=O)n(C)cc(C#CC(O)(c3ccccc3)C(F)(F)F)c2c1-c1nnc(C(C)(C)C)o1 (stereo not drawn) [Example 188, 3-(5-tert-butyl-1,3,4-oxadiazol-2-yl)-2,6-dimethyl-4-(4,4,4-trifluoro-3-hydroxy-3-phenyl-but-1-ynyl)-1H-pyrrolo[2,3-c]pyridin-7-one]
18 | 34.1 | 185 | CCOC(=O)c1c(C)[nH]c2c(=O)n(C)cc(C#CC(O)(c3cccc(C(N)=O)c3)C(F)(F)F)c12 (stereo not drawn) [Example 197, ethyl 4-[3-(3-carbamoylphenyl)-4,4,4-trifluoro-3-hydroxy-but-1-ynyl]-2,6-dimethyl-7-oxo-1H-pyrrolo[2,3-c]pyridine-3-carboxylate]
19 | 130 | 1300 | CC(=O)c1c(C)[nH]c2c(=O)n(C)cc(C#CC(C)(C)O)c12 [Example 199a, 3-acetyl-4-(3-hydroxy-3-methyl-but-1-ynyl)-2,6-dimethyl-1H-pyrrolo[2,3-c]pyridin-7-one]
20 | 88.8 | 334 | Cc1[nH]c2c(=O)n(C)cc(C#CC(O)(c3ccccc3)C(F)(F)F)c2c1-c1nnc(CO)o1 (stereo not drawn) [Example 205, 3-(5-(hydroxymethyl)-1,3,4-oxadiazol-2-yl)-2,6-dimethyl-4-(4,4,4-trifluoro-3-hydroxy-3-phenyl-but-1-ynyl)-1H-pyrrolo[2,3-c]pyridin-7-one]
21 | 79.5 | 438 | CCOC(=O)c1c(C)[nH]c2c(=O)n(C)cc(C#CC(O)(c3cccc(N4CCOCC4)c3)C(F)(F)F)c12 (stereo not drawn) [Example 208, ethyl 2,6-dimethyl-7-oxo-4-[4,4,4-trifluoro-3-hydroxy-3-(3-morpholinophenyl)but-1-ynyl]-1H-pyrrolo[2,3-c]pyridine-3-carboxylate]
